Experiment: Treatment-emergent adverse events, three Phase 3 double-blind studies, LMTM pooled safety population
Assay type: in vivo, human
Description: Three Phase 3, double-blind, controlled studies of LMTM have been completed (one each in subjects with mild and mild to moderate AD and one in subjects with bvFTD). Results of the AD studies have been published (Gauthier et al., 2016; Wilcock et al., 2018).
In these three studies, 1897 subjects received at least one dose of LMTM (Safety Population [Five additional subjects with AD, participating at one site in Study TRx-237-005, received a dose of study drug but were excluded from all analyses due to GCP violations], 1679 subjects with AD and 218 subjects with bvFTD). Of these, 860 subjects received the control (LMTM 8 mg/day, 750 with AD and 110 with bvFTD) and 1037 subjects received at least one dose of LMTM in the higher doses of 150 to 250 mg/day (929 with AD and 108 with bvFTD).
The incidence of the most common TEAEs are summarised by dose in the following Table EX1. This includes TEAEs that occurred at an incidence of ≥2.0% either in subjects randomised to LMTM 8 mg/day or higher doses (150 to 250 mg/day). The subset of TEAEs that were severe in intensity are also included.
The TEAEs are further analysed by using groupings of related MedDRA (Medical Dictionary for Regulatory Activities) preferred terms to better estimate the incidence of potentially treatment related adverse events. The incidence of all groupings for subjects categorised by dose (8 mg/day versus higher doses of 150 to 250 mg/day) is shown in the following Table EX2: […]

[1] = Higher Doses (150-250 mg/day) (N = 1037)
[2] = Higher Doses (150-250 mg/day) (N = 1037), All
[3] = Higher Doses (150-250 mg/day) (N = 1037), Severe Intensity

In the case of `CN(C)c1ccc2c(c1)Sc1cc(N(C)C)ccc1N2` [LMTM, leuco-methylthioninium bis(hydromethanesulfonate)], the “Grouped TEAE incidence: Affective/Anxiety Symptoms” value [1] is reported as 55 (5.3%) n (%), the “Grouped TEAE incidence: Anaemia” value [1] is reported as 219 (21.1%) n (%) and the “Grouped TEAE incidence: Behavioral Symptoms” value [1] is reported as 118 (11.4%) n (%). For the same compound, the “Grouped TEAE incidence: Falls and Related Terms” value [1] was 202 (19.5%) n (%), the “Grouped TEAE incidence: Hepatic Function Impairment” value [1] was 34 (3.3%) n (%) and the “Grouped TEAE incidence: Hypersensitivity” value [1] was 63 (6.1%) n (%). The “Grouped TEAE incidence: Ischaemic Events, Inclusive of Myocardial Infarction” value [1] was 35 (3.4%) n (%), the “Grouped TEAE incidence: Psychotic Symptoms” value [1] was 34 (3.3%) n (%) and the “Grouped TEAE incidence: Renal Function Impairment” value [1] was 42 (4.1%) n (%). For the same compound, the “Grouped TEAE incidence: Renal and Urinary Disorders (Including Infections)” value [1] was 326 (31.4%) n (%), the “Grouped TEAE incidence: Sleep Disorders” value [1] was 48 (4.6%) n (%) and the “Grouped TEAE incidence: Targeted Gastrointestinal Events” value [1] was 401 (38.7%) n (%). For the same compound, the “No. (%) of Subjects Reporting at Least One TEAE” value [2] was 902 (87.0%) n (%), the “TEAE incidence: Abdominal pain” value [2] was 30 (2.9%) n (%) and the “TEAE incidence: Abdominal pain upper” value [2] was 21 (2.0%) n (%). For the same compound, the “TEAE incidence: Agitation” value [2] was 61 (5.9%) n (%), the “TEAE incidence: Anaemia” value [2] was 59 (5.7%) n (%) and the “TEAE incidence: Anxiety” value [2] was 39 (3.8%) n (%). For the same compound, the “TEAE incidence: Arthralgia” value [2] was 31 (3.0%) n (%), the “TEAE incidence: Atrial fibrillation” value [2] was 10 (1.0%) n (%) and the “TEAE incidence: Back pain” value [2] was 44 (4.2%) n (%). For the same compound, the “TEAE incidence: Blood creatine phosphokinase increased” value [2] was 31 (3.0%) n (%), the “TEAE incidence: Blood folate decreased” value [2] was 76 (7.3%) n (%) and the “TEAE incidence: Bronchitis” value [2] was 19 (1.8%) n (%). For the same compound, the “TEAE incidence: Cerebral microhaemorrhage” value [2] was 16 (1.5%) n (%), the “TEAE incidence: Confusional state” value [2] was 45 (4.3%) n (%) and the “TEAE incidence: Constipation” value [2] was 24 (2.3%) n (%). For the same compound, the “TEAE incidence: Contusion” value [2] was 15 (1.4%) n (%), the “TEAE incidence: Cough” value [2] was 42 (4.1%) n (%) and the “TEAE incidence: Decreased appetite” value [2] was 39 (3.8%) n (%). For the same compound, the “TEAE incidence: Dehydration” value [2] was 18 (1.7%) n (%), the “TEAE incidence: Depression” value [2] was 37 (3.6%) n (%) and the “TEAE incidence: Diarrhoea” value [2] was 278 (26.8%) n (%). The “TEAE incidence: Dizziness” value [2] was 64 (6.2%) n (%), the “TEAE incidence: Dysuria” value [2] was 75 (7.2%) n (%) and the “TEAE incidence: Fall” value [2] was 78 (7.5%) n (%). For the same compound, the “TEAE incidence: Fatigue” value [2] was 38 (3.7%) n (%), the “TEAE incidence: Folate deficiency” value [2] was 45 (4.3%) n (%) and the “TEAE incidence: Haemoglobin decreased” value [2] was 34 (3.3%) n (%). For the same compound, the “TEAE incidence: Hallucination” value [2] was 21 (2.0%) n (%), the “TEAE incidence: Headache” value [2] was 61 (5.9%) n (%) and the “TEAE incidence: Hypertension” value [2] was 22 (2.1%) n (%). The “TEAE incidence: Insomnia” value [2] was 32 (3.1%) n (%), the “TEAE incidence: Laceration” value [2] was 14 (1.4%) n (%) and the “TEAE incidence: Micturition urgency” value [2] was 35 (3.4%) n (%). For the same compound, the “TEAE incidence: Nasopharyngitis” value [2] was 43 (4.1%) n (%), the “TEAE incidence: Nausea” value [2] was 86 (8.3%) n (%) and the “TEAE incidence: Oedema peripheral” value [2] was 20 (1.9%) n (%). The “TEAE incidence: Pain in extremity” value [2] was 17(1.6%) n (%), the “TEAE incidence: Pollakiuria” value [2] was 71 (6.8%) n (%) and the “TEAE incidence: Rash” value [2] was 30 (2.9%) n (%). For the same compound, the “TEAE incidence: Suicidal ideation” value [2] was 30 (2.9%) n (%), the “TEAE incidence: Syncope” value [2] was 28 (2.7%) n (%) and the “TEAE incidence: Tremor” value [2] was 13 (1.3%) n (%). For the same compound, the “TEAE incidence: Upper respiratory tract infection” value [2] was 34 (3.3%) n (%), the “TEAE incidence: Urinary incontinence” value [2] was 63 (6.1%) n (%) and the “TEAE incidence: Urinary tract infection” value [2] was 116 (11.2%) n (%). The “TEAE incidence: Vitamin B12 decreased” value [2] was 21 (2.0%) n (%), the “TEAE incidence: Vomiting” value [2] was 80 (7.7%) n (%) and the “TEAE incidence: Weight decreased” value [2] was 39 (3.8%) n (%). The “No. (%) of Subjects Reporting at Least One TEAE” value [3] was 126 (12.2%) n (%), the “TEAE incidence: Abdominal pain” value [3] was 1 (0.1%) n (%) and the “TEAE incidence: Abdominal pain upper” value [3] was 0 n (%). The “TEAE incidence: Agitation” value [3] was 7 (0.7%) n (%), the “TEAE incidence: Anaemia” value [3] was 0 n (%) and the “TEAE incidence: Anxiety” value [3] was 2 (0.2%) n (%). The “TEAE incidence: Arthralgia” value [3] was 1 (0.1%) n (%), the “TEAE incidence: Atrial fibrillation” value [3] was 2 (0.2%) n (%) and the “TEAE incidence: Back pain” value [3] was 2 (0.2%) n (%). For the same compound, the “TEAE incidence: Blood creatine phosphokinase increased” value [3] was 0 n (%), the “TEAE incidence: Blood folate decreased” value [3] was 0 n (%) and the “TEAE incidence: Bronchitis” value [3] was 0 n (%). For the same compound, the “TEAE incidence: Cerebral microhaemorrhage” value [3] was 0 n (%), the “TEAE incidence: Confusional state” value [3] was 2 (0.2%) n (%) and the “TEAE incidence: Constipation” value [3] was 1 (0.1%) n (%). The “TEAE incidence: Contusion” value [3] was 0 n (%), the “TEAE incidence: Cough” value [3] was 0 n (%) and the “TEAE incidence: Decreased appetite” value [3] was 1 (0.1%) n (%). The “TEAE incidence: Dehydration” value [3] was 2 (0.2%) n (%), the “TEAE incidence: Depression” value [3] was 2 (0.2%) n (%) and the “TEAE incidence: Diarrhoea” value [3] was 14 (1.4%) n (%). For the same compound, the “TEAE incidence: Dizziness” value [3] was 2 (0.2%) n (%), the “TEAE incidence: Dysuria” value [3] was 1 (0.1%) n (%) and the “TEAE incidence: Fall” value [3] was 7 (0.7%) n (%). The “TEAE incidence: Fatigue” value [3] was 1 (0.1%) n (%), the “TEAE incidence: Folate deficiency” value [3] was 0 n (%) and the “TEAE incidence: Haemoglobin decreased” value [3] was 0 n (%). For the same compound, the “TEAE incidence: Hallucination” value [3] was 4 (0.4%) n (%), the “TEAE incidence: Headache” value [3] was 3 (0.3%) n (%) and the “TEAE incidence: Hypertension” value [3] was 1 (0.1%) n (%). For the same compound, the “TEAE incidence: Insomnia” value [3] was 0 n (%), the “TEAE incidence: Laceration” value [3] was 1 (0.1%) n (%) and the “TEAE incidence: Micturition urgency” value [3] was 0 n (%). The “TEAE incidence: Nasopharyngitis” value [3] was 0 n (%), the “TEAE incidence: Nausea” value [3] was 1 (0.1%) n (%) and the “TEAE incidence: Oedema peripheral” value [3] was 0 n (%). For the same compound, the “TEAE incidence: Pain in extremity” value [3] was 0 n (%), the “TEAE incidence: Pollakiuria” value [3] was 2 (0.2%) n (%) and the “TEAE incidence: Rash” value [3] was 0 n (%). For the same compound, the “TEAE incidence: Suicidal ideation” value [3] was 0 n (%), the “TEAE incidence: Syncope” value [3] was 5 (0.5%) n (%) and the “TEAE incidence: Tremor” value [3] was 0 n (%). For the same compound, the “TEAE incidence: Upper respiratory tract infection” value [3] was 0 n (%), the “TEAE incidence: Urinary incontinence” value [3] was 1 (0.1%) n (%) and the “TEAE incidence: Urinary tract infection” value [3] was 3 (0.3%) n (%). For the same compound, the “TEAE incidence: Vitamin B12 decreased” value [3] was 0 n (%), the “TEAE incidence: Vomiting” value [3] was 3 (0.3%) n (%) and the “TEAE incidence: Weight decreased” value [3] was 0 n (%). The “Grouped TEAE incidence: Affective/Anxiety Symptoms” value (LMTM 8 mg/day (N = 860)) was 60 (7.0%) n (%) and the “Grouped TEAE incidence: Anaemia” value (LMTM 8 mg/day (N = 860)) was 111 (12.9%) n (%).

Source: patent US12263175B2, “Optimised dosage of diaminophenothiazines in populations” (WisTa Laboratories Ltd., priority 2018, dated 2025)
